Source: patent publication US5171662A, “Method of detecting HIV protease activity” (priority 1991, dated 1992)
Non-standard residues stand in square brackets, D forms with d. Residues, ends and D or L forms follow the SMILES beside them. No end group written: not given here. *: point of attachment. Sta = CC(C)C[C@H](N)[C@@H](O)CC(=O)O; Isovaleryl = CC(C)CC(=O)*

Columns and labels:
[1] = system: synthetic protease (99-residue peptide with the sequence proposed for the HIV protease); conditions: cited from earlier work
HIV protease [2] = conditions: cited from earlier work
HIV protease [3] = conditions: cited from earlier work; remark: listed apart in the source
HIV protease [4] = molecular target: HIV protease (HIV-1 M:B_HXB2R, UniProt P04585); experiment: Cleavage of tetradecapeptide substrate by HIV protease, Ang I determined by RIA; assay type: biochemical
From the text: The tetradecapeptide (TDP) substrate, Asp-Arg-Val-Tyr-Ile-His-Pro-Phe-His-Leu-Leu-Val-Tyr-Ser, was obtained from Peninsula Laboratories, Inc., Belmont, Calif. The Ang I RIA kit was purchased from Baxter Health Care Corporation, Cambridge, Mass. Recombinant HIV-1 protease was purified and refolded from E. coli as published previously (Tomasselli, A. G. et. al. (1990) Biochemistry 29, 264-269). The TDP substrate has an HIV protease cleavage site which when cut at the Leu-Leu bond produces authentic Ang I. The Ang I RIA kit detected the Angiotesin I if produced.
The various steps of the in vitro assay to screen a compound were performed as follows. The series of assays are done for each compound, each assay using a different concentration of compound. The various reagents were added to the system in the order which they are listed.
1. 52 μl assay buffer (0.1M Sodium Acetate, 10% glycerol, 3 mM EDTA, 5% ethylene glycol, 1 mg/ml BSA, pH 5.5)
2. 15 μl HIV-1 protease (final Concentration in assay 0.75 μg/ml). For inhibition studies, 12 μl of inhibitor solution was added prior to adding the enzyme.
3. 135 μl of 2.8 uM substrate (final concentration about 1.9 μM)
4. […]
5. […] Following an overnight equilibration at room temperature, the tubes are drained and the amount of radioactivity (^125 I-labeled Ang I) remaining on the tube is determined in a gamma counter. […]

Compound | inhibition of proteolytic action of the synthetic protease [1] | inhibition of cleavage of gag precursor polyproteins by HIV protease (HIV protease [2]) | inhibition of autoprocessing which liberates the protease from the precursor (HIV protease [3]) | cleavage of substrate by HIV protease (HIV protease [4])
CC(C)CC(=O)N[C@H](C(=O)N[C@H](C(=O)N[C@@H](CC(C)C)[C@@H](O)CC(=O)N[C@@H](C)C(=O)N[C@@H](CC(C)C)[C@@H](O)CC(=O)O)C(C)C)C(C)C [pepstatin A] (Isovaleryl-VV[Sta]A[Sta]-OH) | can be inhibited by pepstatin | can be inhibited by pepstatin A | can be inhibited | 
DRVYIHPFHLLVYS [TDP] |  |  |  | HIV protease cleaves the Ang I substrate
